According to patent US20260042764A1, “COMPOSITIONS AND METHODS FOR INHIBITION OF KRAS” (TheRas, Inc., priority 2022, published 2026):
pIC50: −log10 of the molar value.

Tests used:
SW620 cells (KRAS G12V) = experiment: Cell-based pERK HTRF assay in SW620 cell (Biological Example 4); details: Homo sapiens, SW-620, SW620 (KRAS G12V) cells, pERK HTRF
In short: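 This assay measures inhibition of ERK phosphorylation downstream of KRAS G12V in intact SW620 cells. Compounds are applied for 4 h over nine half-log concentrations starting at 1 μM, and pERK is quantified by HTRF.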

[1] = target: T1, Avi-KRAS G12D (1-169) GppNHp/RAF1 RBD-3xFLAG (52-151) (Homo sapiens, UniProt P01116, G12D); experiment: Raf1-KRAS G12D-GppNHP disruption HTRF assay (Biological Example 1); format: binding
T1 construct: Avi-KRAS G12D (1-169)
T1 sequence (P01116 1-169 isoform P01116-2 G12D): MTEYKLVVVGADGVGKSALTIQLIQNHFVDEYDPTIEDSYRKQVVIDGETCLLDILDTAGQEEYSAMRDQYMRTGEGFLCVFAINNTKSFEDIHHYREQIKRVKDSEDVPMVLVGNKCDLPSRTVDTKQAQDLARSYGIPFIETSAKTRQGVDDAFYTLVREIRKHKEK
In short: (§1)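 Measured with a KRAS/RAF1 HTRF assay at pH 7.5 in 10% DMSO, with two 1 h room-temperature incubations with shaking.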

GP2d cells (KRAS G12D) = experiment: Cell-based pERK HTRF assay in GP2d cell (Biological Example 2); details: GP2d, GP2d (KRAS G12D) cells, pERK HTRF
In short: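 Phospho-ERK is measured by HTRF following a 60 min compound exposure at 0.25% DMSO, with a 9-point half-log curve topping at 1 μM or 100 nM.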

[2] = target: T2, Avi-KRAS G12V (1-169) GppNHp/RAF1 RBD-3xFLAG (52-151) (Homo sapiens, UniProt P01116, G12V); experiment: Raf1-KRAS G12V-GppNHP disruption HTRF assay (Biological Example 1); format: binding
T2 construct: Avi-KRAS G12V (1-169)
T2 sequence (P01116 1-169 isoform P01116-2 G12V): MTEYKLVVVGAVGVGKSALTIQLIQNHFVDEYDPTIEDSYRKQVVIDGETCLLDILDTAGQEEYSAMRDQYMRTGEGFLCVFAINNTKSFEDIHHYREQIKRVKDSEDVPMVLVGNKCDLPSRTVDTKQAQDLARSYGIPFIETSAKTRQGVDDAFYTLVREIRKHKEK
In short: as §1

[3] = target: T3, Avi-KRAS WT (1-169) GppNHp/RAF1 RBD-3xFLAG (52-151) (Homo sapiens, UniProt P01116); experiment: Raf1-KRAS WT-GppNHP disruption HTRF assay (Biological Example 1); format: binding
T3 construct: Avi-KRAS WT (1-169)
T3 sequence (P01116 1-169 isoform P01116-2): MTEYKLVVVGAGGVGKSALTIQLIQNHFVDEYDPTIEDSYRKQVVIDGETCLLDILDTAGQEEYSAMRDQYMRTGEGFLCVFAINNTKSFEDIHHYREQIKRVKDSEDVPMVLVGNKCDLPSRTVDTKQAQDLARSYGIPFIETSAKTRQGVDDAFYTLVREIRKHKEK
In short: as §1

[4] = target: T4, Avi-KRAS G12R (1-169) GppNHp/RAF1 RBD-3xFLAG (52-151) (Homo sapiens, UniProt P01116, G12R); experiment: Raf1-KRAS G12R-GppNHP disruption HTRF assay (Biological Example 1); format: binding
T4 construct: Avi-KRAS G12R (1-169)
T4 sequence (P01116 1-169 isoform P01116-2 G12R): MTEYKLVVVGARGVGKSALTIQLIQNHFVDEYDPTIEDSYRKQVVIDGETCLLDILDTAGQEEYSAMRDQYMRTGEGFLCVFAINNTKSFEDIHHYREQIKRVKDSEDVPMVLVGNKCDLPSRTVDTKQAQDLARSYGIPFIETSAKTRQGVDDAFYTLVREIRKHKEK
In short: as §1

[5] = KRAS G12D, GppNHp-loaded, class symbols
[6] = KRAS G12V, GppNHp-loaded, class symbols
[7] = KRAS WT, GppNHp-loaded, class symbols
[8] = KRAS G12R, GppNHp-loaded, class symbols
[9] = KRAS G12D, GppNHp-loaded, Table 11
[10] = KRAS G12V, GppNHp-loaded, Table 11
[11] = KRAS WT, GppNHp-loaded, Table 11
[12] = KRAS G12R, GppNHp-loaded, Table 11

SMILES	pIC50 (SW620 cells (KRAS G12V); class symbols)	pIC50 [1, 5]	pIC50 (GP2d cells (KRAS G12D); class symbols)	pIC50 [2, 6]	pIC50 [3, 7]	pIC50 [4, 8]	pIC50 (SW620 cells (KRAS G12V))	pIC50 ([1]; KRAS G12D-GppNHp/RAF1 RBD HTRF)	pIC50 (GP2d cells (KRAS G12D))	pIC50 ([2]; KRAS G12V-GppNHp/RAF1 RBD HTRF)	pIC50 ([3]; KRAS WT-GppNHp/RAF1 RBD HTRF)	pIC50 ([4]; KRAS G12R-GppNHp/RAF1 RBD HTRF)	pIC50 [1, 9]	pIC50 [2, 10]	pIC50 [3, 11]	pIC50 [4, 12]
CCN(c1nc(OC[C@@]23CCCN2C[C@H](F)C3)nc2c(F)c(-c3ccc(F)c4sc(N)c(C#N)c34)c(C(F)(F)F)cc12)[C@H]1CCN(C(=O)[C@H]2CCCCO2)C1 (atropisomer, axis not shown) [Compound 770]	> 7.00	> 7.00	> 7.00	> 7.00	> 7.00	> 7.00	–	–	–	–	–	–	–	–	–	–
C[C@@H]1[C@H](N(C)c2nc(OC[C@@]34CCCN3C[C@H](F)C4)nc3c(F)c(-c4ccc(F)c5sc(N)c(C#N)c45)c(C(F)(F)F)cc23)CCN1C(=O)C1(C)CC1 [Compound 313]	–	–	–	–	–	–	> 7.00	6.00 to 7.00	> 7.00	6.00 to 7.00	6.00 to 7.00	6.00 to 7.00	–	–	–	–
CCN1CC[C@@H](N(CC)c2nc(OC[C@@]34CCCN3C[C@H](F)C4)nc3c(F)c(-c4ccc(F)c5sc(N)c(C#N)c45)c(C(F)(F)F)cc23)C1=O (atropisomer, axis not shown) [Compound 695]	> 7.00	6.00 to 7.00	> 7.00	6.00 to 7.00	6.00 to 7.00	6.00 to 7.00	–	–	–	–	–	–	–	–	–	–
C[C@@H]1[C@H](N(C)c2nc(OC[C@@]34CCCN3C[C@H](F)C4)nc3c(F)c(-c4ccc(F)c5sc(N)c(C#N)c45)c(C(F)(F)F)cc23)CCN1C(=O)C1(C#N)CC1 [Compound 325]	–	–	–	–	–	–	> 7.00	6.00 to 7.00	> 7.00	6.00 to 7.00	6.00 to 7.00	6.00 to 7.00	–	–	–	–
CN(C)C(=O)CN(C)c1nc(OC[C@@]23CCCN2C[C@H](F)C3)nc2c(F)c(-c3ccc(F)c4sc(N)c(C#N)c34)c(C(F)(F)F)cc12 [Compound 208]	–	–	–	–	–	–	6.00 to 7.00	–	> 7.00	–	–	–	6.00 to 7.00	6.00 to 7.00	6.00 to 7.00	5.00 to 6.00
CCN(c1nc(OC[C@@]23CCCN2C[C@H](F)C3)nc2c(F)c(-c3ccc(F)c4sc(N)c(C#N)c34)c(C(F)(F)F)cc12)[C@H]1CCN(C(=O)N2CCC2)C1 (atropisomer, axis not shown) [Compound 574]	> 7.00	> 7.00	> 7.00	> 7.00	> 7.00	> 7.00	–	–	–	–	–	–	–	–	–	–
CCN(c1nc(OC[C@@]23CCCN2C[C@H](F)C3)nc2c(F)c(-c3ccc(F)c4sc(N)c(C#N)c34)c(C(F)(F)F)cc12)[C@H]1C[C@H](C)N(C(=O)[C@H](C)OC)C1 (atropisomer, axis not shown) [Compound 739]	> 7.00	> 7.00	> 7.00	6.00 to 7.00	> 7.00	> 7.00	–	–	–	–	–	–	–	–	–	–
N#Cc1c(N)sc2c(F)ccc(-c3c(C(F)(F)F)cc4c(N(C5CC5)[C@H]5CCN(C(=O)[C@@H]6CC6(F)F)C5)nc(OC[C@@]56CCCN5C[C@H](F)C6)nc4c3F)c12 (atropisomer, axis not shown) [Compound 779]	> 7.00	> 7.00	> 7.00	6.00 to 7.00	6.00 to 7.00	6.00 to 7.00	–	–	–	–	–	–	–	–	–	–
CCC(=O)N1CC[C@@H](N(C)c2nc(OC[C@@]34CCCN3C[C@H](F)C4)nc3c(F)c(-c4ccc(F)c5sc(N)c(C#N)c45)c(C(F)(F)F)cc23)[C@@H]1C [Compound 299]	–	–	–	–	–	–	> 7.00	6.00 to 7.00	> 7.00	5.00 to 6.00	6.00 to 7.00	5.00 to 6.00	–	–	–	–
N#Cc1c(N)sc2c(F)ccc(-c3c(C(F)(F)F)cc4c(N5CC6CC(C5)O6)nc(OC[C@]56C[C@@H](F)CN5CC5(CC5)C6)nc4c3F)c12 [Compound 594]	> 7.00	5.00 to 6.00	> 7.00	5.00 to 6.00	5.00 to 6.00	5.00 to 6.00	–	–	–	–	–	–	–	–	–	–
N#Cc1c(N)sc2c(F)ccc(-c3c(C(F)(F)F)cc4c(N5CCS(=O)(=O)CC5)nc(OC[C@@]56CCCN5C[C@H](F)C6)nc4c3F)c12 [Compound 91]	–	–	–	–	–	–	> 7.00	–	> 7.00	–	–	–	6.00 to 7.00	6.00 to 7.00	6.00 to 7.00	6.00 to 7.00
COC(=O)N1CC[C@@H](N(C)c2nc(OC[C@@]34CCCN3C[C@H](F)C4)nc3c(F)c(-c4ccc(F)c5sc(N)c(C#N)c45)c(C(F)(F)F)cc23)[C@H]1C [Compound 410]	–	–	–	–	–	–	> 7.00	6.00 to 7.00	> 7.00	6.00 to 7.00	6.00 to 7.00	6.00 to 7.00	–	–	–	–
CN(C[C@H](F)CO)c1nc(OC[C@@]23CCCN2C[C@H](F)C3)nc2c(F)c(-c3ccc(F)c4sc(N)c(C#N)c34)c(C(F)(F)F)cc12 [Compound 216]	–	–	–	–	–	–	> 7.00	–	> 7.00	–	–	–	6.00 to 7.00	6.00 to 7.00	6.00 to 7.00	6.00 to 7.00
C[C@]1(O)CCN(c2nc(OC[C@@]34CCCN3C[C@H](F)C4)nc3c(F)c(-c4ccc(F)c5sc(N)c(C#N)c45)c(C(F)(F)F)cc23)C1 [Compound 242]	–	–	–	–	–	–	6.00 to 7.00	–	> 7.00	–	–	–	6.00 to 7.00	6.00 to 7.00	6.00 to 7.00	6.00 to 7.00
N#Cc1c(N)sc2c(F)ccc(-c3c(C(F)(F)F)cc4c(N5CC6OCC5C6F)nc(OC[C@@]56CCCN5C[C@H](F)C6)nc4c3F)c12 (stereo partly drawn) [Compound 531]	–	–	–	–	–	–	> 7.00	6.00 to 7.00	> 7.00	6.00 to 7.00	6.00 to 7.00	6.00 to 7.00	–	–	–	–
CCN(c1nc(OC[C@@]23CCCN2C[C@H](F)C3)nc2c(F)c(-c3ccc(F)c4sc(N)c(C#N)c34)c(C(F)(F)F)cc12)[C@H]1CC(=O)N(CC(F)F)C1 [Compound 549]	–	–	–	–	–	–	> 7.00	> 7.00	> 7.00	6.00 to 7.00	6.00 to 7.00	6.00 to 7.00	–	–	–	–
CCN(c1nc(OC[C@@]23CCCN2C[C@H](F)C3)nc2c(F)c(-c3ccc(F)c4sc(N)c(C#N)c34)c(C(F)(F)F)cc12)[C@H]1CCN(C(=O)c2ccsn2)C1 (atropisomer, axis not shown) [Compound 722]	> 7.00	> 7.00	> 7.00	> 7.00	> 7.00	> 7.00	–	–	–	–	–	–	–	–	–	–
CCN(c1nc(OC[C@@]23CCCN2C[C@H](F)C3)nc2c(F)c(-c3ccc(F)c4sc(N)c(C#N)c34)c(C(F)(F)F)cc12)[C@H]1CCN(C(=O)[C@H](C)CF)C1 (atropisomer, axis not shown) [Compound 790]	> 7.00	> 7.00	> 7.00	6.00 to 7.00	> 7.00	> 7.00	–	–	–	–	–	–	–	–	–	–
